# Measured values: patent US20140256945A1, “PHOSPHONIC ACID COMPOUNDS AS SPHINGOSINE-1-PHOSPHATE RECEPTOR MODULATORS” (Allergan, Inc., priority 2013, published 2014)
# Tested on: blood lymphocytes
# Test: Lymphopenia Assay in Mice
# Format: in vivo
# Conditions: female C57BL6 mice, 0.5 mg/Kg subcutaneous, after 5 hours
# Description: Test drugs are prepared in a solution containing 3% (w/v) 2-hydroxy propyl β-cyclodextrin (HPBCD) and 1% DMSO to a final concentration of 1 mg/ml, and subcutaneously injected to female C57BL6 mice (CHARLES RIVERS) weighing 20-25 g at the dose of 0.5 to 10 mg/Kg. Blood samples are obtained by puncturing the submandibular skin with a Goldenrod animal lancet at 5, 24, 48, and 72 hrs post drug application. Blood is collected into microvettes (SARSTEDT) containing EDTA tripotassium salt. Lymphocytes in blood samples are counted using a HEMAVET Multispecies Hematology System, HEMAVET HV950FS (Drew Scientific Inc.). • (Hale, J. et al Bioorg.& Med. Chem. Lett. 14 (2004) 3351).
# A lymphopenia assay in mice; as previously described, was employed to measure the in vivo blood lymphocyte depletion after dosing with the test compound (3-{[2,5-difluoro-4-(6-phenylhexyl)benzyl]amino}propyl)phosphonic acid Compound-10. This S1P1 modulator, (3-{[2,5-difluoro-4-(6-phenylhexyl)benzyl]amino}propyl)phosphonic acid Compound-10 is useful for S1P-related diseases and exemplified by the lymphopenia in vivo response. […] Lymphocytes in blood samples were counted using a HEMAVET Multispecies Hematology System, HEMAVET HV950FS (Drew Scientific Inc.). […]
row,Structure (SMILES),lymphocyte count (number of lymphocytes)
1,"O=P(O)(O)CCCNCc1cc(F)c(CCCCCCc2ccccc2)cc1F [Compound 10, (3-{[2,5-difluoro-4-(6-phenylhexyl)benzyl]amino}propyl)phosphonic acid]",< 1 10^3/μL blood

# Same assay, conditions: mice, 0.5 mg/kg, 5, 24, 48, 72 hours (FIG. 1)
row,Structure (SMILES),Lymphopenia
1,"O=P(O)(O)CCCNCc1cc(F)c(CCCCCCc2ccccc2)cc1F [Compound 10, (3-{[2,5-difluoro-4-(6-phenylhexyl)benzyl]amino}propyl)phosphonic acid]",Lymphopenia was induced

# Target: T1, human S1P1 receptor (Homo sapiens, UniProt P21453)
# T1 construct: expressed in transfected cells; membranes used
# Test: GTP γ35S binding assay for S1P1 activity
# Format: biochemical
# Conditions: membranes of cells stably expressing S1P1 receptor, agonist potency
# Description: Compounds were tested for S1P1 activity using the GTP γ^35S binding assay. These compounds may be assessed for their ability to activate or block activation of the human S1P1 receptor in cells stably expressing the S1P1 receptor.
# GTP γ^35S binding was measured in the medium containing (mM) HEPES 25, pH 7.4, MgCl2 10, NaCl 100, dithitothreitol 0.5, digitonin 0.003%, 0.2 nM GTP γ^35S, and 5 μg membrane protein in a volume of 150 μl. Test compounds were included in the concentration range from 0.08 to 5,000 nM unless indicated otherwise. Membranes were incubated with 100 μM 5′-adenylylimmidodiphosphate for 30 min, and subsequently with 10 μM GDP for 10 min on ice. Drug solutions and membrane were mixed, and then reactions were initiated by adding GTP γ^35S and continued for 30 min at 25° C. Reaction mixtures were filtered over Whatman GF/B filters under vacuum, and washed three times with 3 mL of ice-cold buffer (HEPES 25, pH7.4, MgCl2 10 and NaCl 100). Filters were dried and mixed with scintillant, and counted for ^35S activity using a β-counter. Agonist-induced GTP γ^35S binding was obtained by subtracting that in the absence of agonist. Binding data were analyzed using a non-linear regression method. In case of antagonist assay, the reaction mixture contained 10 nM S1P in the presence of test antagonist at concentrations ranging from 0.08 to 5000 nM.
# T1 sequence (P21453 whole entry): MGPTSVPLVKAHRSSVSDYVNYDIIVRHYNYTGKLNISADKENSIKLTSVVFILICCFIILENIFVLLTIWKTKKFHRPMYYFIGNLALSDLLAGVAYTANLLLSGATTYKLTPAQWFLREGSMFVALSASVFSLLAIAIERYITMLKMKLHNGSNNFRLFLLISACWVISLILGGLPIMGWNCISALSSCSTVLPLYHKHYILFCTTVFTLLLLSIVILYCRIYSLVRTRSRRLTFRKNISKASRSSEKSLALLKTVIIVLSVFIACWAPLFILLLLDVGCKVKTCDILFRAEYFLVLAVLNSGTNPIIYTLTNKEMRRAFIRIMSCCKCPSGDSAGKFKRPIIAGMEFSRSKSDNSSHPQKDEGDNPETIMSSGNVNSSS
row,Structure (SMILES),EC50 [nM]
1,"Cc1cc(CNCCCP(=O)(O)O)ccc1C#CCCCCc1ccccc1 [Compound 2, (3-{[3-methyl-4-(6-phenylhex-1-yn-1-yl)benzyl]amino}propyl)phosphonic acid]",3.4
2,"O=P(O)(O)CCCNCc1ccc(C#CCCCCc2ccccc2)cc1 [Compound 3, (3-{[4-(6-phenylhex-1-yn-1-yl)benzyl]amino}propyl)phosphonic acid]",26.7
3,"O=P(O)(O)CCCNCc1ccc(C#CCCCCc2ccccc2)c(Br)c1 [Compound 4, (3-{[3-bromo-4-(6-phenylhex-1-yn-1-yl)benzyl]amino}propyl)phosphonic acid]",22.1
4,"O=P(O)(O)CCCNCc1ccc(CCCCCCc2ccccc2)c(F)c1 [Compound 5, (3-{[3-fluoro-4-(6-phenylhexyl)benzyl]amino}propyl)phosphonic acid]",4.2
5,"O=P(O)(O)CCCNCc1ccc(CCCCCCc2ccccc2)c(C(F)(F)F)c1 [Compound 7, (3-{[4-(6-phenylhexyl)-3-(trifluoromethyl)benzyl]amino}propyl)phosphonic acid]",11.2
6,"O=P(O)(O)CCCNCc1ccc(CCCCCCc2ccccc2)c(Cl)c1 [Compound 8, (3-{[3-chloro-4-(6-phenylhexyl)benzyl]amino}propyl)phosphonic acid]",0.5
7,"O=P(O)(O)CCCNCc1cc(F)c(CCCCCCc2ccccc2)cc1F [Compound 10, (3-{[2,5-difluoro-4-(6-phenylhexyl)benzyl]amino}propyl)phosphonic acid]",1.9
8,"O=P(O)(O)CCCNCc1ccc(NCCCCCc2ccccc2)c(Br)c1 [Compound 12, [3-({3-bromo-4-[(5-phenylpentyl)amino]benzyl}amino)propyl]phosphonic acid]",4.1

# Continued by falling EC50, values first:
row,EC50 [nM],Structure (SMILES)
1,105,"O=C(CCCCc1ccccc1)Nc1ccc(CNCCCP(=O)(O)O)cc1Br [Compound 11, [3-({3-bromo-4-[(5-phenylpentanoyl)amino]benzyl}amino)propyl]phosphonic acid]"
2,6.8,"O=P(O)(O)CCCNCc1ccc(CCCCCCc2ccccc2)cc1 [Compound 9, (3-{[4-(6-phenylhexyl)benzyl]amino}propyl)phosphonic acid]"
3,4.3,"O=P(O)(O)CCCNCc1ccc(C#CCCCCc2ccccc2)c(F)c1 [Compound 1, (3-{[3-fluoro-4-(6-phenylhex-1-yn-1-yl)benzyl]amino}propyl)phosphonic acid]"
4,0.7,"Cc1cc(CNCCCP(=O)(O)O)ccc1CCCCCCc1ccccc1 [Compound 6, (3-{[3-methyl-4-(6-phenylhexyl)benzyl]amino}propyl)phosphonic acid]"
